Earlier results in patent US9556167B2, “TLR-agonist-conjugated antibody recruiting molecules (TLR-ARMs)” (YALE UNIVERSITY, priority 2012, dated 2017).

Tests used:
[1] = test system: advanced prostate cancer patients
[2] = test system: aggressive end-stage prostate cancer

Compound	prolongation of life on average [1]	patients with reduced PSA levels and tumor sizes [2]
CC(=O)O[C@@]12CO[C@@H]1C[C@H](O)[C@@]1(C)C(=O)[C@H](O)C3=C(C)[C@@H](OC(=O)[C@H](O)[C@@H](NC(=O)OC(C)(C)C)c4ccccc4)C[C@@](O)([C@@H](OC(=O)c4ccccc4)[C@H]21)C3(C)C [Taxotere]	2.5 months	
CC(=O)O[C@H]1CC[C@@]2(C)C(=CC[C@@H]3[C@@H]2CC[C@]2(C)C(c4cccnc4)=CC[C@@H]32)C1 [abiraterone acetate]		≤ 70 % of patients
